The source of these data is patent publication US20050031540A1, “Visco dye” (priority 2001, published 2005).

The subject of series [1] is anterior capsule of the crystalline lens. In words: Vital dye staining of the anterior lens capsule to visualise the CCC. Conditions: absence of a red fundus reflex. From the text: It is possible to use a number of vital dyes already known today, but also such which may become available in the future as the visualising agent. […] These include azophlozin, basic blue, Bismarck brown, basis red, bengal red, brilliant cresyl blue, eosin, fluorescein, gentian violet, indocyanine green, Janus green, methylene green, methylene blue, neutral red and others.

Series [2] deals with corneal endothelial cells. Conditions: earlier use to stain corneas prior to corneal transplants; cited from earlier work.

For the molecule `CN(C)c1ccc(C(=C2C=CC(=[N+](C)C)C=C2)c2ccc(N(C)C)cc2)cc1` [gentian violet], the “staining of the anterior capsule sufficient to visualise the CCC” value (from here on “staining … to visualise the CCC”) in series [1] (dye 2%) is on record as “stained the anterior capsule sufficiently to visualise the CCC”.
On to `CN(C)c1ccc2nc3ccc(=[N+](C)C)cc-3sc2c1` [methylene blue], for which the “staining … to visualise the CCC” value in series [1] (dye 5%) is “stained the anterior capsule sufficiently to visualise the CCC”.
Turning to `Cc1cc(-c2ccc(/N=N/c3c(S(=O)(=O)O)cc4cc(S(=O)(=O)O)cc(N)c4c3O)c(C)c2)ccc1/N=N/c1c(S(=O)(=O)O)cc2cc(S(=O)(=O)O)cc(N)c2c1O` [trypan blue], the “staining … to visualise the CCC” value in series [1] (dye 0.1%) was “stained the anterior capsule sufficiently to visualise the CCC”. In addition, in series [2], the “tolerance of corneal endothelium to vital staining, endothelial cell counts” value is “without a reduction in endothelial cell counts”.
Turning to brilliant cresyl blue, in series [1] (dye 1%), the “staining … to visualise the CCC” value is “stained the anterior capsule sufficiently to visualise the CCC”.
